Our source for the Residual activity and remaining activity values is patent US7294330B2, “β-glucuronidase inhibitors for use in deodorants and antiperspirants” (priority 2001, dated 2007).

Counter-ions that a name gives are not always drawn. Like-named read-outs stand apart in the source and are kept apart here.

This test deals with T1, β-glucuronidase (Sigma) (EC 3.2.1.31) from E. coli (Escherichia coli, UniProt P05804).
T1 construct: purchased Sigma G-7396
The test can be described thus: biochemical. As to conditions: for remaining activity at 0.001 %: test concentration 0.001 %. As to the method:
Investigation of the inhibitory action of the β-glucuronidase inhibitors (in vitro)
Since the skin-relevant β-glucuronidase was not available, a commercially available β-glucuronidase (Sigma) (EC 3.2.1.31) from E. coli served as the model enzyme for testing the inhibitory action of the inhibitors used according to the invention. The tests were carried out with the β-glucuronidase enzyme assay product no. G-7396 from Sigma in accordance with the instructions in the Sigma Quality Control Test Procedure datasheet.
For the evaluation, the phenolphthalein formed from the substrate phenolphthalein glucuronide by β-glucuronidase was determined spectrophotometrically (λ=540 nm).
The reaction solutions of 300 μl, which were temperature-controlled at a reaction temperature of 37° C., comprised 30 mM potassium phosphate buffer with 0.04% of albumin (pH 6.8), 0.5 mM phenolphthalein glucuronide (substrate) and a starting concentration of 40 U/ml (=12 U) of β-glucuronidase. The unit U of the enzyme activity was defined such that 1 U of β-glucuronidase hydrolyses 1.0 μmol of phenolphthalein glucuronide per minute at pH 6.8 and 37° C.
The reaction was started by addition of the enzyme and incubation was carried out for 30 min at 37° C. The reaction was then stopped with 3.5 times the volume of a 200 mM glycine solution of pH 10.4. In the photometric end point determination, the amount of phenolphthalein liberated was determined at the wavelength of λ=540 nm and at 37° C.
In batches with inhibitor, 0.2 ml of the appropriately concentrated reagents and 0.1 ml of the inhibitor, dissolved in water, were mixed. In each case a concentration series of the inhibitor was tested here. The absorption (A) here is a measure of the activity of the enzyme (ΔA). The activity of the enzyme in the absence of an inhibitor (ΔA1) was set at 100% as the reference. Under analogous conditions, the activities were determined in the presence of an inhibitor (ΔA2). The inhibitory action of the inhibitor was shown as the residual activity of the enzyme activity, calculated in accordance with the equation 100%−(ΔA2)/(ΔA1)%.

Setting [1] is: test concentration 0.01 %, 30 min, 37° C., pH 6.8.
[2] abbreviates: test concentration 0.10 %, 30 min, 37° C., pH 6.8.
Setting [3] is: test concentration 1.00 %, 30 min, 37° C., pH 6.8.
The mark [4] stands for this setting: test concentration 0.08 %, 30 min, 37° C., pH 6.8.
Setting [5] is: test concentration 0.50 %, 30 min, 37° C., pH 6.8.
The mark [6] stands for this setting: 0.5 h, 30 min, 37° C., pH 6.8, read-out: Residual activity.
Where [7] appears, read: 0.5 h, test concentration 0.01 %, 30 min, 37° C., pH 6.8, read-out: Residual activity.
Setting [8] is: 0.5 h, test concentration 0.10 %, 30 min, 37° C., pH 6.8, read-out: Residual activity.
The mark [9] stands for this setting: 0.5 h, test concentration 1.00 %, 30 min, 37° C., pH 6.8, read-out: Residual activity.
Where [10] appears, read: test concentration 2.00 %, 30 min, 37° C., pH 6.8.
[11] abbreviates: 0.5 h, pH 6.8, read-out: Residual activity.
The mark [12] stands for this setting: 0.5 h, concentration in the test 0.01 % (head of grid column 4, first sub-table), 30 min, 37° C., pH 6.8, read-out: Residual activity.

T1 sequence (P05804 whole entry): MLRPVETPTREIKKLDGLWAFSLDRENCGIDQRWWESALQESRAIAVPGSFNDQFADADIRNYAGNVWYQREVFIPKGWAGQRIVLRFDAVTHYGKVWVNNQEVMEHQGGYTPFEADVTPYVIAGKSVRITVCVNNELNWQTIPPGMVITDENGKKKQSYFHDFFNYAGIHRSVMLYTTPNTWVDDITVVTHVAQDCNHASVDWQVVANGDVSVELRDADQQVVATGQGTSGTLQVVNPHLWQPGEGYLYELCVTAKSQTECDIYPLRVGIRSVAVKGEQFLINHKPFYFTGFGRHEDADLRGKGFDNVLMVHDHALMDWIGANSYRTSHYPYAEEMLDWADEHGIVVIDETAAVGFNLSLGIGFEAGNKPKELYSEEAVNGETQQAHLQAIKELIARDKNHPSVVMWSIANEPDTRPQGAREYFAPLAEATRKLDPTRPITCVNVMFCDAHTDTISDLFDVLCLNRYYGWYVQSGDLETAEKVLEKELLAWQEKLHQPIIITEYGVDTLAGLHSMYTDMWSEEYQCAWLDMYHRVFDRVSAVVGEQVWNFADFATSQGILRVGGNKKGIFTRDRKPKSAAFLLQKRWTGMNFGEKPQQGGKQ

For the compound `O=C([O-])CC(O)(CC(=O)[O-])C(=O)[O-].[K+].[K+].[K+]` [Tripotassium citrate, tripotassium citrate], the Residual activity reads like this: under setting [1], 97%; under setting [2], 86%; under setting [3], 47%.
Turning to `O=C([O-])C(O)C(O)C(O)C(O)C(O)CO.O=C([O-])C(O)C(O)C(O)C(O)C(O)CO.[Mg+2]` (stereo not shown) [Magnesium glucoheptonate, magnesium glucoheptonate], the Residual activity under setting [1] is given as 55% and the Residual activity under setting [2] stood at 50%.
In the case of `CC(O)C(=O)[O-].CC(O)C(=O)[O-].[Zn+2]` (stereo not shown) [Zinc lactate, zinc lactate], the Residual activity stood at 77% (test concentration 0.005 %, 30 min, 37° C., pH 6.8); 55% (test concentration 0.05 %, 30 min, 37° C., pH 6.8); 30% under setting [4]; 3% under setting [5].
Regarding zinc gluconate, the Residual activity is 88% under setting [1]; 54% under setting [2]; 3% (test concentration 0.25 %, 30 min, 37° C., pH 6.8); 1% under setting [3].
As to `O=C1CC[C@@H](C(=O)[O-])N1.O=C1CC[C@@H](C(=O)[O-])N1.[Zn+2]` [Zincidone], the Residual activity is, setting by setting: under setting [1], 79%; under setting [2], 8%; under setting [3], 3%.
With `C[C@@H]1O[C@@H](O[C@H]2[C@H](Oc3cc(O)c4c(c3)O[C@H](c3ccc(O)cc3)CC4=O)O[C@H](CO)[C@@H](O)[C@@H]2O)[C@H](O)[C@H](O)[C@H]1O` [Naringin, naringenin 7-rhamnoglucoside], under setting [6], the remaining activity at 0.001 % is 103%. Moreover, the remaining activity at 0.01 % under setting [7] was 94%. Moreover, the remaining activity at 0.1 % under setting [8] was determined as 47%.
Regarding `O.O.O.O.O.[Cl][Cu][Cl]` [CuCl2 × 5H2O, CuCl2·5 H2O], the Residual activity reads like this: (test concentration 0.000005 %, 30 min, 37° C., pH 6.8) 105%; (test concentration 0.00005 %, 30 min, 37° C., pH 6.8) 39%; (test concentration 0.00025 %, 30 min, 37° C., pH 6.8) 7%.
On to `O=C(O)C(O)c1ccc(O)cc1` (stereo not shown) [Dermosoft HMA, p-Hydroxymandelic acid sodium salt], for which, under setting [7], the remaining activity at 0.01 % was determined as 110%. Also, the remaining activity at 0.1 % under setting [8] came to 99%. Moreover, under setting [9], the remaining activity at 1 % amounted to 56%.
Turning to `CC(O)C(=O)[O-].[K+]` (stereo not shown) [Purasal P Hipure 60, Potassium lactate], the Residual activity came out at 96% under setting [1], 88% under setting [2] and 52% under setting [3].
Take `O=P(O)(O)O[C@H]1[C@H](OP(=O)(O)O)[C@@H](OP(=O)(O)O)[C@H](OP(=O)(O)O)[C@@H](OP(=O)(O)O)[C@H]1OP(=O)(O)O` [Phytic acid, myo-inositol-hexaphosphoric acid]: the remaining activity at 0.01 % under setting [7] was found to be 90%. The remaining activity at 0.05 % (0.5 h, test concentration 0.05 %, 30 min, 37° C., pH 6.8, read-out: Residual activity) is 86%. Moreover, the remaining activity at 0.1 % under setting [8] was found to be 71%. In addition, the remaining activity at 0.38 % (0.5 h, test concentration 0.38 %, 30 min, 37° C., pH 6.8, read-out: Residual activity) worked out at 68%. Under setting [9], the remaining activity at 1 % stood at 16%.
For `CC(C(=O)[O-])N(CC(=O)[O-])CC(=O)[O-].[Na+].[Na+].[Na+]` (stereo not shown) [Trilon M, Methylglycinediacetic acid trisodium salt], the Residual activity is listed as 99% under setting [1], 91% under setting [2] and 55% under setting [3].
In the case of `O=C([O-])CN(CC(=O)[O-])CC(=O)[O-].[Na+].[Na+].[Na+]` [Trilon A, Nitrilotriacetic acid 3 Na, reference compound], the Residual activity amounted to 100% under setting [1]; 90% under setting [2]; 71% under setting [5]; 59% under setting [3]; 52% under setting [10].
Take `CC(C)c1cccc(=O)c(O)c1` [Hinokitiol (DMSO), 2-hydroxy-4-isopropyl-2,4,6-cycloheptatrien-1-one]: the remaining activity at 0.001 % under setting [6] is 112%. For the same compound, the remaining activity at 0.01 % under setting [7] amounted to 156%. Further, the remaining activity at 0.1 % under setting [8] turned out to be 30%. Moreover, the remaining activity at 1 % under setting [9] was determined as 2%.
For the compound Copper gluconate [Givobio GCU], the Residual activity is reported as 81% under setting [1] and 50% under setting [2].
As for `C=CCc1ccc(O[C@@H]2O[C@H](CO)[C@@H](O)[C@H](O)[C@H]2O)c(OC)c1` [Eugenyl Glucoside, 2-methoxy-4-(2-propenyl)phenyl β-D-glucoside], the Residual activity reads like this: under setting [2], 53%; under setting [5], 12%.
For `OCCc1ccccc1` [Phenylethyl alcohol, 2-phenylethyl alcohol], the remaining activity at 0.01 % under setting [7] is 121%. Besides, under setting [8], the remaining activity at 0.1 % worked out at 227%. The remaining activity at 1 % under setting [9] is 49%.
For `NCC(=O)O` [Glycine, glycine], under setting [11], the remaining activity at 0.01 % was found to be 95%, the remaining activity at 0.1 % was determined as 91%, the remaining activity at 0.5 % was determined as 70% and the remaining activity at 1 % stood at 52%. For the same compound, under setting [11], the remaining activity at 2 % is 32%.
As to `C=C(C)C1CCC(C)CC1O` (stereo not shown) [Coolact P, 5-methyl-2-(1-methylvinyl)cyclohexan-1-ol], the remaining activity at 0.0005 % (0.5 h, concentration in the test 0.0005 % (head of grid column 3, first sub-table), 30 min, 37° C., pH 6.8, read-out: Residual activity) was 184%. The remaining activity at 0.01 % under setting [12] was 38%.
Consider `CC(O)(P(=O)(O)O)P(=O)(O)O` [Dequest 2016D, 1-Hydroxyethane-1,1-diphosphonic acid tetrasodium salt], for which the remaining activity at 8e-05 % (0.5 h, concentration in the test 0.00008 % (head of grid column 1, first sub-table), 30 min, 37° C., pH 6.8, read-out: Residual activity) came out at 99%. Further, under “0.5 h, concentration in the test 0.0008 % (head of grid column 2, first sub-table), 30 min, 37° C., pH 6.8, read-out: Residual activity”, the remaining activity at 0.0008 % is 95%. Besides, the remaining activity at 0.01 % under setting [12] came to 52%.
Turning to `O=C(/C=C/c1ccc(O)c(O)c1)O[C@H](Cc1ccc(O)c(O)c1)C(=O)O` [Rosemary acid, rosemary acid], the Residual activity runs as follows: (test concentration 0.0008 %, 30 min, 37° C., pH 6.8) 48%; (test concentration 0.008 %, 30 min, 37° C., pH 6.8) 15%; under setting [4], 19%; (test concentration 8 · 10^−5 %, 30 min, 37° C., pH 6.8) 86%.
On to `O=C([O-])CN(CCN(CC(=O)[O-])CC(=O)[O-])CC(=O)[O-].[Na+].[Na+].[Na+].[Na+]` [Trilon B, EDTA-4 Na, reference compound], for which the Residual activity reads like this: under setting [1], 108%; under setting [2], 86%; under setting [5], 57%; under setting [3], 51%; under setting [10], 43%.
In the case of `CC(=O)CCc1ccc(O[C@@H]2O[C@H](CO)[C@@H](O)[C@H](O)[C@H]2O)cc1` [Raspberry ketone glucoside, 4-(γ-ketobutyl)phenyl β-D-glucoside], the Residual activity is, setting by setting: under setting [5], 125%; under setting [3], 49%.
